Each compound was assayed against T1, human H-PGDS (Homo sapiens, UniProt O60760) (assay: H-PGDS RapidFire high throughput mass spectrometry assay). Settings: inhibition of conversion of PGH2 to PGD2 by H-PGDS; mean pIC50; read-out: Potency Range (mean pIC50) (converted).
T1 construct: Full length human H-PGDS cDNA (Invitrogen Ultimate ORF IOH13026) was amplified by PCR; 6-His (N); TEV protease cleavage site (N); made in house; host or cells: E. coli BL21 (DE3*) for H-PGDS; Sf9 insect cells (baculovirus) for COX-2
T1 sequence (O60760 whole entry): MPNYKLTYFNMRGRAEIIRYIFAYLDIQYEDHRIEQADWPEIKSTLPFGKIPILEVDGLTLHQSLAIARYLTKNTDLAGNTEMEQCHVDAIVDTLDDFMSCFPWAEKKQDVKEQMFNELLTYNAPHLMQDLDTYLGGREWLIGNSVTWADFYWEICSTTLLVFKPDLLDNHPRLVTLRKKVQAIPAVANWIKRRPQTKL
Format: biochemical
Procedure: H-PGDS RapidFire™ High Throughput Mass Spectrometry Assay
The H-PGDS RapidFire™ mass spectrometric assay monitors conversion of prostaglandin H2 (PGH2) to prostaglandin D2 (PGD2) by haematopoietic prostaglandin D synthase (H-PGDS). In the assay format described here, the substrate (PGH2) is formed in situ by the action of cyclooxygenase-2 on arachidonic acid. This first step is set up to be fast, and generates a burst of PGH2 at ˜10 μM. The PGH2 is then further converted to PGD2 by the H-PGDS enzyme. […] Plates are then read on the RapidFire™ high throughput solid phase extraction system (Agilent) which incorporates a solid phase extraction step coupled to a triple quadrupole mass spectrometer (AB SCIEX). Relative levels of PGD2 and PGF2α, which acts as a surrogate for substrate, are measured and a percent conversion calculated. Inhibitors are characterised as compounds which lower the conversion of PGH2 to PGD2.
Full length human H-PGDS cDNA (Invitrogen Ultimate ORF IOH13026) was amplified by PCR with the addition of a 5′ 6-His tag and TEV protease cleavage site. The PCR product was digested with NdeI and XhoI and ligated into pET22b+ (Merck Novagen®). Expression was carried out in E. coli strain BL21 (DE3*) using auto-induction Overnight Express™ Instant TB medium (Merck Novagen®) supplemented with 1% glycerol. The culture was first grown at 37° C. and the temperature was reduced to 25° C. when OD600 reached 2.0. Cells were harvested by centrifugation after a further 18 hours. 10 g of E. coli cell pellet was suspended to a total volume of 80 mL in lysis buffer (20 mM Tris-Cl pH 7.5, 300 mM NaCl, 20 mM imidazole, 5 mM p-mercaptoethanol, 10% glycerol). 1 mg/mL protease inhibitors (Protease Inhibitor Cocktail Set III, Merck Calbiochem®) and 1 mg/mL lysozyme were added to the cell suspension. The suspension was then sonicated for 5 min (UltraSonic Processor VCX 750, Cole-Parmer Instrument Co.) with a micro probe (50% amplitude, 10 sec on/off) and then centrifuged at 100,000 g for 90 minutes (at 4° C.). The supernatant was loaded onto a Ni-NTA HiTrap column (5 mL, GE Healthcare, pre-equilibrated in lysis buffer). The column was washed with 10 column volumes of lysis buffer and eluted with lysis buffer containing 500 mM imidazole. The pooled protein peak fractions were concentrated using a 10 kDa centrifugal filter at 3500 g and 4° C. (Amicon Ultra-15 centrifugal filter unit with Ultracel-10 membrane from Millipore). Further purification of the concentrated protein was carried out using gel filtration chromatography on a HiLoad 26/600 Superdex 75 preparative grade column (GE Healthcare Life Sciences) using 50 mM Tris pH 7.5, 50 mM NaCl, 1 mM dithiothreitol, 1 mM MgCl2. Fractions containing the protein were pooled, concentrated as described above, and stored at −80° C.
The full length human COX-2 gene (accession number L15326) was amplified by PCR to generate an EcoRI—HindIII fragment containing an in-frame FLAG tag. This was subcloned into pFastBac 1 (Invitrogen). The COX-2 FLAG plasmid was recombined into the baculovirus genome according to the BAC-to-BAC protocol described by Invitrogen. Transfection into Spodoptera frugiperda (Sf9) insect cells was performed using Cellfectin (Invitrogen), according to the manufacturer's protocol. Super Sf9 cells were cultured in EX420 media (SAFC Biosciences) to a density of approximately 1.5×10^6 cells/mL within a wave bioreactor. Recombinant virus was added at a Multiplicity of Infection (MOI) of 5 and the culture was allowed to continue for 3 days. Cells were harvested using a continuous feed centrifuge run at 2500 g at a rate of approximately 2 L/min with cooling. The resultant cell slurry was re-centrifuged in pots (2500 g, 20 min, 4° C.) and the cell paste was stored at −80° C. […]

| SMILES | IC50 [nM] |
| --- | --- |
| Cc1ccnc(-c2ncc(C(=O)N[C@H]3CCNC3=O)s2)c1 [Example 47, (S)-2-(4-Methylpyridin-2-yl)-N-(2-oxopyrrolidin-3-yl)thiazole-5-carboxamide] | 10.2 to 100 |
| Cc1cc(-c2ncc(C(=O)N[C@H]3CCNC3=O)s2)cc(C(F)F)c1 [Example 48, (S)-2-(3-(Difluoromethyl)-5-methylphenyl)-N-(2-oxopyrrolidin-3-yl)thiazole-5-carboxamide] | 10.2 to 100 |
| O=C(N[C@H]1C(=O)N[C@@H]2CCC[C@@H]21)c1cnc(-c2cc(F)cc(Cl)c2)s1 [Example 50, 2-(3-Chloro-5-fluorophenyl)-N-((3R,3aS,6aR)-2-oxooctahydrocyclopenta[b]pyrrol-3-yl)thiazole-5-carboxamide] | 102 to 1000 |
| O=C(N[C@@H]1C(=O)N[C@H]2CCC[C@H]21)c1cnc(-c2cc(F)cc(Cl)c2)s1 [Example 51, 2-(3-Chloro-5-fluorophenyl)-N-((3S,3aR,6aS)-2-oxooctahydrocyclopenta[b]pyrrol-3-yl)thiazole-5-carboxamide] | 1.02 to 10 |
| O=C(N[C@@H]1C(=O)N[C@H]2COC[C@H]21)c1cnc(-c2cc(F)cc(Cl)c2)s1 [Example 53, 2-(3-Chloro-5-fluorophenyl)-N-((3S,3aR,6aR)-2-oxohexahydro-1H-furo[3,4-b]pyrrol-3-yl)thiazole-5-carboxamide] | 10.2 to 100 |
| O=C(N[C@H]1C(=O)N[C@@H]2COC[C@@H]21)c1cnc(-c2cc(F)cc(Cl)c2)s1 [Example 54, 2-(3-Chloro-5-fluorophenyl)-N-((3R,3aS,6aS)-2-oxohexahydro-1H-furo[3,4-b]pyrrol-3-yl)thiazole-5-carboxamide] | 10.2 to 100 |
| O=C(N[C@@H]1CC2(COC2)NC1=O)c1cnc(-c2cc(F)cc(Cl)c2)s1 [Example 56, (R)-2-(3-Chloro-5-fluorophenyl)-N-(6-oxo-2-oxa-5-azaspiro[3.4]octan-7-yl)thiazole-5-carboxamide] | 102 to 1000 |
| O=C(N[C@H]1CC2(COC2)NC1=O)c1cnc(-c2cc(F)cc(Cl)c2)s1 [Example 57, (S)-2-(3-Chloro-5-fluorophenyl)-N-(6-oxo-2-oxa-5-azaspiro[3.4]octan-7-yl)thiazole-5-carboxamide] | 1.02 to 10 |
| O=C(N[C@H]1C(=O)N[C@H]2CCC[C@H]21)c1cnc(-c2cc(F)cc(Cl)c2)s1 [Example 59, 2-(3-Chloro-5-fluorophenyl)-N-((3R,3aR,6aS)-2-oxooctahydrocyclopenta[b]pyrrol-3-yl)thiazole-5-carboxamide] | 102 to 1000 |
| O=C(N[C@@H]1C(=O)N[C@@H]2CCC[C@H]12)c1cnc(-c2cc(F)cc(Cl)c2)s1 [Example 60, 2-(3-Chloro-5-fluorophenyl)-N-((3S,3aS,6aR)-2-oxooctahydrocyclopenta[b]pyrrol-3-yl)thiazole-5-carboxamide] | 10.2 to 100 |
| C[C@@H]1C[C@@H](NC(=O)c2cnc(-c3cc(F)cc(Cl)c3)s2)C(=O)N1 [Example 61, 2-(3-Chloro-5-fluorophenyl)-N-((3R,5R)-5-methyl-2-oxopyrrolidin-3-yl)thiazole-5-carboxamide] | 102 to 1000 |
| C[C@@H]1C[C@H](NC(=O)c2cnc(-c3cc(F)cc(Cl)c3)s2)C(=O)N1 [Example 62, 2-(3-Chloro-5-fluorophenyl)-N-((3S,5R)-5-methyl-2-oxopyrrolidin-3-yl)thiazole-5-carboxamide] | 10.2 to 100 |
| CN1CC[C@H](NC(=O)c2cnc(-c3cc(F)cc(Cl)c3)s2)C1=O [Example 64, (S)-2-(3-Chloro-5-fluorophenyl)-N-(1-methyl-2-oxopyrrolidin-3-yl)thiazole-5-carboxamide] | 10.2 to 100 |
| CN(C(=O)c1cnc(-c2cc(F)cc(Cl)c2)s1)[C@H]1CCNC1=O [Example 66, (S)-2-(3-Chloro-5-fluorophenyl)-N-methyl-N-(2-oxopyrrolidin-3-yl)thiazole-5-carboxamide] | 1020 to 10000 |
| CN(C(=O)c1cnc(-c2cc(F)cc(Cl)c2)s1)[C@@H]1CCNC1=O [Example 67, (R)-2-(3-Chloro-5-fluorophenyl)-N-methyl-N-(2-oxopyrrolidin-3-yl)thiazole-5-carboxamide] | > 10000 |

Source: patent US20220009918A1, “Chemical Compounds” (GlaxoSmithKline Intellectual Property Development Limited, priority 2018, published 2022)
